Results reported in ChEMBL document CHEMBL4831510, “Novel cannabidiol-carbamate hybrids as selective BuChE inhibitors: Docking-based fragment reassembly for the development of potential therapeutic agents against Alzheimer's disease” (Eur J Med Chem, 2021).
pIC50, pKd: −log10 of the molar value. Calls of active or inactive are those of the source. The calls are words filed in the database; no cut-off is given here.

Assays:
[1] = Antioxidant activity assessed as DPPH radical scavenging activity at 100 uM incubated for 2 hrs by microplate reader method; format: functional
Acetylcholinesterase [2] = target: Acetylcholinesterase (Electrophorus electricus, UniProt O42275); test: Inhibition of electric eel AChE using acetylthiocholine iodide as substrate preincubated with enzyme for 20 mins followed by substrate addition and measured after 20 mins by Ellman's method
Sequence of Acetylcholinesterase (Electrophorus electricus, UniProt O42275) (O42275 whole entry): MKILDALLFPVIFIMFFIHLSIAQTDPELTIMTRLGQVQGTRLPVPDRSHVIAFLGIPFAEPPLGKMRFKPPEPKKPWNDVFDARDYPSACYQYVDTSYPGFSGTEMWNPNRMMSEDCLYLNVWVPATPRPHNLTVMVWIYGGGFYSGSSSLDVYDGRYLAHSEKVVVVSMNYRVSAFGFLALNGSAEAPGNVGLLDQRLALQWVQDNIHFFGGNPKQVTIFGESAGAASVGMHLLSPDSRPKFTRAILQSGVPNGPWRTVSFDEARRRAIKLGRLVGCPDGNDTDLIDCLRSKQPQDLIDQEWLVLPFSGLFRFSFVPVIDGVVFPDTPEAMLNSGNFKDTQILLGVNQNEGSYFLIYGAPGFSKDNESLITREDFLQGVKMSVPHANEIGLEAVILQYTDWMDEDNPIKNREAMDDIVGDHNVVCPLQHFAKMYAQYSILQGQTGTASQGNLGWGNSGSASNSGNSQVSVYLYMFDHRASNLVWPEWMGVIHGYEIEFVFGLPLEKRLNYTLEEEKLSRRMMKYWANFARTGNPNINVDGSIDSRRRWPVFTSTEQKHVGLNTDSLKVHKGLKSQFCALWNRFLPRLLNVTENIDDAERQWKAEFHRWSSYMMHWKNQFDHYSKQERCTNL

Cholinesterase [3] = target: T1, Cholinesterase (Equus caballus, UniProt P81908)
T1 sequence (P81908 whole entry): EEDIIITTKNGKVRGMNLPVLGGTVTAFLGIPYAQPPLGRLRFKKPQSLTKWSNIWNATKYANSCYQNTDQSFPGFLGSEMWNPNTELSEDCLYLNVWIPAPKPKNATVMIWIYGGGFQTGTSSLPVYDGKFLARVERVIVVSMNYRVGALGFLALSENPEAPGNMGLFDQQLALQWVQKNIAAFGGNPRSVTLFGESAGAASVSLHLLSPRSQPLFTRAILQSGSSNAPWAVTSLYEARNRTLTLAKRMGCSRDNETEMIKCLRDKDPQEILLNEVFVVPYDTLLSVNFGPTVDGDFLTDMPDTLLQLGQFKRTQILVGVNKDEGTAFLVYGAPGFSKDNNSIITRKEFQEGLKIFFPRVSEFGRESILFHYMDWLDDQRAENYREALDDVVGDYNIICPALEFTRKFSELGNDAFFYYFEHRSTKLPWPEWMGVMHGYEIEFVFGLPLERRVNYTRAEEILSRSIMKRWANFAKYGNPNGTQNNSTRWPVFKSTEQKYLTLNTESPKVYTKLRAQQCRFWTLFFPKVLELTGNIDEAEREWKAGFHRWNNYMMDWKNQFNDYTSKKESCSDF
Description: Inhibition of equine serum BuChE using butyrylthiocholine iodide as substrate preincubated with enzyme for 20 mins followed by substrate addition and measured after 20 mins by Ellman's method

[4] = Cytotoxicity against human L02 cells assessed as cell viability at 50 uM incubated for 24 hrs by MTT assay; format: cell-based; conditions: read-out: Activity
[5] = Cytotoxicity against human HepG2 cells assessed as cell viability at 25 uM incubated for 24 hrs by MTT assay; format: cell-based; conditions: read-out: Activity
[6] = n-Octanol/PBS partition coefficient, logP of the compound incubated for 48 hrs at pH 7.4 by shake flask method; format: physicochemical
[7] = Permeability of the compound at 100 ug/ml incubated for 18 hrs by PAMPA; format: ADME; conditions: dose 100 µg/ml, read-out: permeability
PC-12 [8] = test: Neuroprotective activity against H2O2-induced cytotoxicity in rat PC-12 cells assessed as cell viability at 25 uM pretreated for 3 hrs followed by H2O2 stimulation and measured after 24 hrs by MTT assay (reference value: 38.7%); format: functional; conditions: time 27 hrs, read-out: Activity
Acetylcholinesterase [9] = target: T2, Acetylcholinesterase (Homo sapiens, UniProt P22303); test: Inhibition of human AChE using acetylthiocholine iodide as substrate at 20 uM preincubated with enzyme for 5 mins followed by substrate addition and measured after 5 mins by Ellman's method; conditions: time 10.0 min
T2 sequence (P22303 whole entry): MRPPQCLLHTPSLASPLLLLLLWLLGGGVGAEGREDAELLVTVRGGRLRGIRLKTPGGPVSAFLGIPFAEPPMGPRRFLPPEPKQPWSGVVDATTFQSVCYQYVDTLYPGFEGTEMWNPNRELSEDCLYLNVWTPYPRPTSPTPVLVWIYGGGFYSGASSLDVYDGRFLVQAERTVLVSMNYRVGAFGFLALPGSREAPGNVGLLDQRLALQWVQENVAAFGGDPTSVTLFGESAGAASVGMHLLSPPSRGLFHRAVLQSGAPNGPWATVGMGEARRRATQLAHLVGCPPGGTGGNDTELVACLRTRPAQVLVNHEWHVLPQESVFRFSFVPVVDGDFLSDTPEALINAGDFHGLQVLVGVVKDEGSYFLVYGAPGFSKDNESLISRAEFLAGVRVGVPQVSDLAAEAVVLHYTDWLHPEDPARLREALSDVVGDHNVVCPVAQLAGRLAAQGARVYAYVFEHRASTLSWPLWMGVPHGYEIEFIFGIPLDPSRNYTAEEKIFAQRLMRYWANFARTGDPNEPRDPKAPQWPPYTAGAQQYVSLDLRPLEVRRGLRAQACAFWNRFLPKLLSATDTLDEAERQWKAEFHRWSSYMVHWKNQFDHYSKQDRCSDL

[10] = target: Cholinesterase (Equus caballus) (UniProt P81908); test: Pseudo-irreversible inhibition of equine serum BuChE assessed as carbamolyation-rate using butyrylthiocholine iodide as substrate preincubated with enzyme for 60 mins prior to substrate addition; format: cell-free
Sequence of Cholinesterase (Equus caballus) (P81908 whole entry): as the sequence (P81908 whole entry) above

[11] = target: Cholinesterase (Equus caballus) (UniProt P81908); test: Pseudo-irreversible inhibition of equine serum BuChE assessed as overall carbamolyation-rate using butyrylthiocholine iodide as substrate preincubated with enzyme for 60 mins prior to substrate addition; format: cell-free
[12] = target: Cholinesterase (Equus caballus) (UniProt P81908); test: Pseudo-irreversible inhibition of equine serum BuChE assessed as decarbamolyation-rate using butyrylthiocholine iodide as substrate preincubated with enzyme for 60 mins prior to substrate addition; format: cell-free
[13] = Cytotoxicity against human HepG2 cells assessed as cell viability at 50 uM incubated for 24 hrs by MTT assay; format: cell-based; conditions: read-out: Activity
[14] = target: Acetylcholinesterase (Electrophorus electricus) (UniProt O42275); test: Inhibition of electric eel AChE using acetylthiocholine iodide as substrate at 20 uM preincubated with enzyme for 20 mins followed by substrate addition and measured after 20 mins by Ellman's method; conditions: time 40.0 min
Sequence of Acetylcholinesterase (Electrophorus electricus) (O42275 24-633 limits assumed): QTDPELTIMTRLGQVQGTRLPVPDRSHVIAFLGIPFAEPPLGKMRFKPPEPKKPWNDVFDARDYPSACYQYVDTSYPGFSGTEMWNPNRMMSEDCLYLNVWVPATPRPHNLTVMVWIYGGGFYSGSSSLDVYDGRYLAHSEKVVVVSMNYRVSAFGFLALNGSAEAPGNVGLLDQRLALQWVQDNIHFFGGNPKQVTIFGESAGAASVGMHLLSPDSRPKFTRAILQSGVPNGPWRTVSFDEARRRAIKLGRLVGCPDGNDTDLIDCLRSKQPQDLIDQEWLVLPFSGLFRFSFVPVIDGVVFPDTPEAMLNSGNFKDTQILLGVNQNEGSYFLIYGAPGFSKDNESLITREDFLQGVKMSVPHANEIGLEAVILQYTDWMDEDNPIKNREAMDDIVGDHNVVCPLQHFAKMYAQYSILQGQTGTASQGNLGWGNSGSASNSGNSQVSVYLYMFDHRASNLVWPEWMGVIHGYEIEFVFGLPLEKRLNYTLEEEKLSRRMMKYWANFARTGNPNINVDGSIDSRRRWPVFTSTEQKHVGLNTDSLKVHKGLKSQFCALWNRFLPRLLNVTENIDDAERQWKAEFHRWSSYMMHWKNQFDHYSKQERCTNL

PC-12 [15] = test: Neuroprotective activity against H2O2-induced cytotoxicity in rat PC-12 cells assessed as increase in cell viability pretreated for 3 hrs followed by H2O2 stimulation and measured after 24 hrs by MTT assay; format: functional, cell-based; conditions: time 27.0 hrs
[16] = Acute toxicity in ICR mouse assessed as animal death at 1 g/kg, ig measured for 7 days; conditions: in vivo, po, 1000 mg/kg, 168 h, time 7 day
[17] = Acute toxicity in ICR mouse assessed as behavioral changes at 1 g/kg, ig measured for 7 days; conditions: in vivo, po, 1000 mg/kg, 168 h, time 7 day
[18] = Acute toxicity in ICR mouse assessed as effect on body weight at 1 g/kg, ig measured for 14 days; conditions: in vivo, po, 1000 mg/kg, 336 h, time 14 day
[19] = Hepatotoxicity in ICR mouse assessed as effect on ALT level in serum at 30 mg/kg, ig measured after 36 hrs; format: toxicity, organism-based; conditions: in vivo, po
[20] = Hepatotoxicity in ICR mouse assessed as effect on AST level in serum at 30 mg/kg, ig measured after 36 hrs; format: toxicity, organism-based; conditions: in vivo, po
[21] = Hepatotoxicity in ICR mouse assessed as pericentral necrosis in liver at 30 mg/kg, ig measured after 36 hrs by immunohistochemical staining based analysis; format: toxicity, organism-based; conditions: in vivo, po
Mus musculus [22] = test: Anti-alzheimer activity against scopolamine-induced cognitive dysfunction mouse model assessed as reduction in escape time latency at 20 mg/kg, ip measured after 60 mins by Morris water maze test; format: functional, organism-based
Cholinesterase [23] = target: T1, Cholinesterase; test: Pseudo-irreversible inhibition of equine serum BuChE assessed as binding affinity in an equilibrium state using butyrylthiocholine iodide as substrate preincubated with enzyme for 60 mins prior to substrate addition; format: cell-free
[24] = Hepatotoxicity in ICR mouse assessed as distinct fatty degeneration of hepatocytes of the surrounding intermediate and peripheral zones in liver at 30 mg/kg, ig measured after 36 hrs by immunohistochemical staining based analysis; format: toxicity, organism-based; conditions: in vivo, po
Mus musculus [25] = test: Anti-alzheimer activity against scopolamine-induced cognitive dysfunction mouse model assessed as increase in number of platform crossing at 20 mg/kg, ip measured after 60 mins by Morris water maze test; format: functional, organism-based
Mus musculus [26] = test: Anti-alzheimer activity against scopolamine-induced cognitive dysfunction mouse model assessed as increase in swimming time in the target quadrant crossing at 20 mg/kg, ip measured after 60 mins by Morris water maze test; format: functional, organism-based
Mus musculus [27] = test: Anti-alzheimer activity against oligomerized-amyloid beta (1 to 42) peptide-induced cognitive dysfunction ICR mouse model assessed as reduction in escape latency time at 5 mg/kg, po administered from day 3 to 14 by Morris water maze test; format: functional, organism-based; conditions: time 12.0 day
Mus musculus [28] = test: Anti-alzheimer activity against oligomerized-amyloid beta (1 to 42) peptide-induced cognitive dysfunction ICR mouse model assessed as simplification of trajectories to the platform at 5 mg/kg, po administered from day 3 to 14 by Morris water maze test; format: functional, organism-based; conditions: time 12.0 day
Mus musculus [29] = test: Anti-alzheimer activity against oligomerized-amyloid beta (1 to 42) peptide-induced cognitive dysfunction ICR mouse model assessed as improvement in alteration performance at 5 mg/kg, po administered from day 3 to 14 by […]; format: functional, organism-based; conditions: time 12.0 day
Mus musculus [30] = test: Anti-alzheimer activity against oligomerized-amyloid beta (1 to 42) peptide-induced cognitive dysfunction ICR mouse model assessed as reduction in amyloid beta (1 to 42) peptide level in brain at 5 mg/kg, po administered from day 3 to 14 by ELISA; format: functional; conditions: 288 h, time 12 day
Mus musculus [31] = test: Anti-alzheimer activity against oligomerized-amyloid beta (1 to 42) peptide-induced cognitive dysfunction ICR mouse model assessed as increase in neuronal density at CA1 region of hippocampus at 5 mg/kg, po administered from day 3 to 14 by Hematoxylin-Eosin staining based microscopic analysis; format: functional, organism-based; conditions: time 12.0 day
Cholinesterase [32] = target: Cholinesterase (Homo sapiens, UniProt P06276)
Sequence of Cholinesterase (Homo sapiens, UniProt P06276) (P06276 whole entry): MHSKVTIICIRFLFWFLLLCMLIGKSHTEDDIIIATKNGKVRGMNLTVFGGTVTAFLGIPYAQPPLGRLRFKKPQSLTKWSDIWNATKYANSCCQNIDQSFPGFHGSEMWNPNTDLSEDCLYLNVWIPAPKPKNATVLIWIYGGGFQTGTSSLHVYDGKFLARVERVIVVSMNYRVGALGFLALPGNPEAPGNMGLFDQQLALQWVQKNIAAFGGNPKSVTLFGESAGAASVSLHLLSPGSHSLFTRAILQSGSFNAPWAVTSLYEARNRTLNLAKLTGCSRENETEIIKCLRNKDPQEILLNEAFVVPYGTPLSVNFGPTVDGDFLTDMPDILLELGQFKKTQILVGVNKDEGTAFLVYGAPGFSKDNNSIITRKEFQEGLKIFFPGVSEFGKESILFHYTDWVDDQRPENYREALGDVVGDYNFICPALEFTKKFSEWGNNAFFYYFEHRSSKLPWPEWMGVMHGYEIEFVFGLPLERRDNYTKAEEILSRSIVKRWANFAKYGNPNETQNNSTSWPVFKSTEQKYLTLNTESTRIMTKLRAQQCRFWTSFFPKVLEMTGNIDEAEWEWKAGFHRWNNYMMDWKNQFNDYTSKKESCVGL
Description: Inhibition of human serum BuChE using butyrylthiocholine iodide as substrate preincubated with enzyme for 5 mins followed by substrate addition and measured after 5 mins by Ellman's method

Acetylcholinesterase [33] = target: T2, Acetylcholinesterase; test: Inhibition of human AChE using acetylthiocholine iodide as substrate preincubated with enzyme for 5 mins followed by substrate addition and measured after 5 mins by Ellman's method

C=C(C)[C@@H]1CCC(C)=C[C@H]1c1c(O)cc(CCCCC)cc1OC(=O)N(C)Cc1cccc(Cl)c1
inhibition [1]: inactive
IC50 (Acetylcholinesterase [2]): Not Active
pIC50 (Cholinesterase [3]): 5.55

C=C(C)[C@@H]1CCC(C)=C[C@H]1c1c(O)cc(CCCCC)cc1O [CANNABIDIOL]
viability at 24 h, 50 µM [4]: 92.6%
viability at 24 h, 25 µM [5]: 20.1%
inhibition [1]: 66.7%
pIC50 (Acetylcholinesterase [2]; read-out: IC50): 4.77
logD at 48 h [6]: 1.67
Papp at 18 h, 100 ug/ml [7]: 22.7 ×10⁻⁶ cm/s
viability at 25 µM (PC-12 [8]): 17.9%
pIC50 (Cholinesterase [3]): 6.17

C=C(C)[C@@H]1CCC(C)=C[C@H]1c1c(O)cc(CCCCC)cc1OC(=O)N(C)Cc1cccc(F)c1
inhibition [1]: inactive
IC50 (Acetylcholinesterase [2]): Not Active
pIC50 (Cholinesterase [3]): 5.31

CCN(C)C(=O)Oc1cccc([C@H](C)N(C)C)c1
inhibition (Acetylcholinesterase [9]): 12.2%
inhibition [1]: 2.5%
K [10]: 0.3 min⁻¹
K [11]: 0.26 µM/min
K [12]: 4.97 10^3/min

C=C(C)[C@@H]1CCC(C)=C[C@H]1c1c(O)cc(CCCCC)cc1OC(=O)N(C)Cc1cccc(Br)c1
inhibition [1]: inactive
IC50 (Acetylcholinesterase [2]): Not Active
pIC50 (Cholinesterase [3]): 5.62

C=C(C)[C@@H]1CCC(C)=C[C@H]1c1c(O)cc(CCCCC)cc1OC(=O)N(C)Cc1ccc(F)cc1
inhibition [1]: 27%
IC50 (Acetylcholinesterase [2]): Not Active
pIC50 (Cholinesterase [3]): 7.16

C=C(C)[C@@H]1CCC(C)=C[C@H]1c1c(O)cc(CCCCC)cc1OC(=O)N(C)Cc1ccc(Cl)cc1
viability at 24 h, 50 µM [4]: 96%
viability at 24 h, 50 µM [13]: 88.3%
inhibition (Acetylcholinesterase [9]): 26.3%
inhibition [1]: 27.1%
inhibition [14]: 21.4%
logD at 48 h [6]: 2.38
Papp at 18 h, 100 ug/ml [7]: 12.9 ×10⁻⁶ cm/s
Activity (PC-12 [15]): Dose-Dependent Effect
viability at 25 µM (PC-12 [8]): 41.9%
Activity [16]: Non-Toxic
Activity [17]: Non-Toxic
Activity [18]: Non-Toxic
Activity [19]: Non-Toxic
Activity [20]: Non-Toxic
Activity [21]: Non-Toxic
Activity (Mus musculus [22]): Active
pKd (Cholinesterase [23]): 7.89
K [10]: 0.26 min⁻¹
K [11]: 20.3 µM/min
K [12]: 5.2 10^3/min
Activity [24]: Non-Toxic
Activity (Mus musculus [25]): Active
Activity (Mus musculus [26]): Active
Activity (Mus musculus [27]): Active
Activity (Mus musculus [28]): Active
Activity (Mus musculus [29]): Active
inhibition in vivo at 5 mg/kg (Mus musculus [30]): 31.6%
Activity (Mus musculus [31]): Active
pIC50 (Cholinesterase [32]): 5.75
pIC50 (Cholinesterase [3]): 8.28

C=C(C)[C@@H]1CCC(C)=C[C@H]1c1c(OC(=O)N2CCCC2)cc(CCCCC)cc1OC(=O)N1CCCC1
inhibition [1]: 17.8%
IC50 (Acetylcholinesterase [2]): Not Active
pIC50 (Cholinesterase [3]): 6.28

C=C(C)[C@@H]1CCC(C)=C[C@H]1c1c(O)cc(CCCCC)cc1OC(=O)N(C)C
inhibition [1]: 27.1%
inhibition [14]: 36.1%
pIC50 (Cholinesterase [3]): 6.70

C=C(C)[C@@H]1CCC(C)=C[C@H]1c1c(O)cc(CCCCC)cc1OC(=O)N(C)Cc1ccc(Br)cc1
IC50 (Acetylcholinesterase [33]): Not Active
inhibition [1]: 41.8%
IC50 (Acetylcholinesterase [2]): Not Active
logD at 48 h [6]: 2.37
pIC50 (Cholinesterase [32]): 5.67
pIC50 (Cholinesterase [3]): 8.14

C=C(C)[C@@H]1CCC(C)=C[C@H]1c1c(O)cc(CCCCC)cc1OC(=O)N(C)Cc1ccccc1
inhibition [1]: 21.1%
IC50 (Acetylcholinesterase [2]): Not Active
logD at 48 h [6]: 2.2
pIC50 (Cholinesterase [3]): 7.34
